Format in all cases: cell-based
Assay [1] has as its system Mycobacterium smegmatis (FH 6498). Briefly: Serial dilution test for MIC, Mueller-Hinton broth.
Assay [2] has as its system S. aureus (control strain). Briefly: Serial dilution test for MIC, Mueller-Hinton broth (control strain).
Assay [3] relates to Mycobacterium phlei (ATCC 1298). The assay can be described thus: microbe, parasite or virus in culture.
Assay [4] deals with Nocardia brasiliensis (ATCC 19296). Briefly: microbe, parasite or virus in culture.
In assay [5] the test system is Nocardia abscessus (BAA 279). The assay can be described thus: microbe, parasite or virus in culture.
Assay [6] deals with Corynebacterium diphtheriae (ATCC 27010). Briefly: microbe, parasite or virus in culture.
The mark [7] stands for this setting: serial dilution, 48 hours at 37° C., approximately 10 Ex 6 CFU/ml.
The mark [8] stands for this setting: 6.25 μg per disc (17 nmol per disc), 48 hrs at 37° C.

Where two headings read alike, the source gives them in different places.

In the case of `CCCCCCCCCCCCCCCCOP1(=O)OC[C@H]2COC(=O)C2=C(C)O1` (stereo partly shown) [Cyclipostin P], in assay [1], the “minimum inhibitory concentration (MIC), Mycobacterium smegmatis (FH 6498)” value (from here on “minimum inhibitory concentration … (FH 6498)”) was below 0.5. For the same compound, in assay [2], the “minimum inhibitory concentration (MIC), S. aureus (control strain)” value is above 64. The “Inhibition zone size, Mycobacterium phlei (ATCC 1298)” value (“Inhibition zone size … (ATCC 1298)” for short) in assay [3] was determined as 35 mm. The “Inhibition zone size, Nocardia brasiliensis (ATCC 19296)” value (“Inhibition zone size … (ATCC 19296)” for short) in assay [4] is reported as 47 mm. In addition, the “Inhibition zone size, Nocardia abscessus (BAA 279)” value (from here on “Inhibition zone size … (BAA 279)”) in assay [5] is 28 mm. Besides, the “Inhibition zone size, Corynebacterium diphtheriae (ATCC 27010)” value (“Inhibition zone size … (ATCC 27010)” for short) in assay [6] is given as 10 mm.

Consider `CCCCCCCCCCCCCCCOP1(=O)OC[C@H]2COC(=O)C2=C(C)O1` (stereo partly shown) [Cyclipostin R], for which, in assay [1], the “minimum inhibitory concentration … (FH 6498)” value is recorded as below 0.5. The “minimum inhibitory concentration (MIC), S. aureus (control strain)” value in assay [2] is above 64.

Regarding `CCCC1=C2C(=O)OC[C@@H]2COP(=O)(OCCCCCCCCCCCCCC(C)C)O1` (stereo partly shown) [Cyclipostin T2], the “minimum inhibitory concentration … (FH 6498)” value in assay [1] is reported as below 0.5. The “minimum inhibitory concentration (MIC), S. aureus (control strain)” value in assay [2] is listed as above 64. For the same compound, in assay [3], the “Inhibition zone size … (ATCC 1298)” value is 47 mm. Moreover, the “Inhibition zone size … (ATCC 19296)” value in assay [4] is 39 mm. Besides, the “Inhibition zone size … (BAA 279)” value in assay [5] came to 10 mm. In addition, in assay [6], the “Inhibition zone size … (ATCC 27010)” value stood at 20 mm.

Turning to `CCCCCCCCCCCCCCCCOP1(=O)OCC2COC(=O)C2=C(CCC)O1` (stereo not shown) [Cyclipostin T], the “minimum inhibitory concentration … (FH 6498)” value in assay [1] (setting [7]) is reported as below 0.5. Moreover, the “minimum inhibitory concentration (MIC), S. aureus (control strain)” value in assay [2] (setting [7]) is above 64. Further, the zone of inhibition at 20 µg/disc in assay [3] (Mycolicibacterium phlei, ATCC1298, 20 μg per disc, 48 hrs at 37° C., read-out: Inhibition zone size, Mycobacterium phlei (ATCC 1298)) is 30 mm; in assay [4] (Nocardia brasiliensis, ATCC19296, 20 μg per disc, 48 hrs at 37° C., read-out: Inhibition zone size, Nocardia brasiliensis (ATCC 19296)), 38 mm; in assay [5] (Nocardia abscessus, BAA279, 20 μg per disc, 48 hrs at 37° C., read-out: Inhibition zone size, Nocardia abscessus (BAA 279)), 9 mm; in assay [6] (Corynebacterium diphtheriae, ATCC27010, 20 μg per disc, 48 hrs at 37° C., read-out: Inhibition zone size, Corynebacterium diphtheriae (ATCC 27010)), 12 mm.

Consider `CC1(C)S[C@@H]2[C@H](NC(=O)Cc3ccccc3)C(=O)N2[C@H]1C(=O)O` [Penicillin G, reference compound], for which the “Inhibition zone size … (ATCC 1298)” value in assay [3] (setting [8]) amounted to 0 mm. In assay [4] (setting [8]), the “Inhibition zone size … (ATCC 19296)” value is on record as 0 mm. Further, the “Inhibition zone size … (BAA 279)” value in assay [5] (setting [8]) amounted to 16 mm. Further, the “Inhibition zone size … (ATCC 27010)” value in assay [6] (setting [8]) is 33 mm.

Consider `CO[C@H]1/C=C/O[C@@]2(C)Oc3c(C)c(O)c4c(O)c(c(/C=N/N5CCN(C)CC5)c(O)c4c3C2=O)NC(=O)/C(C)=C\C=C\[C@H](C)[C@H](O)[C@@H](C)[C@@H](O)[C@@H](C)[C@H](OC(C)=O)[C@@H]1C` [Rifampicin, reference compound], for which the zone of inhibition at 30 µg/disc was 55 mm in assay [3] (Mycolicibacterium phlei, ATCC1298, 30 μg per disc (36 nmol per disc), 48 hrs at 37° C., read-out: Inhibition zone size, Mycobacterium phlei (ATCC 1298)); 10 mm in assay [4] (Nocardia brasiliensis, ATCC19296, 30 μg per disc (36 nmol per disc), 48 hrs at 37° C., read-out: Inhibition zone size, Nocardia brasiliensis (ATCC 19296)); 12 mm in assay [5] (Nocardia abscessus, BAA279, 30 μg per disc (36 nmol per disc), 48 hrs at 37° C., read-out: Inhibition zone size, Nocardia abscessus (BAA 279)); 47 mm in assay [6] (Corynebacterium diphtheriae, ATCC27010, 30 μg per disc (36 nmol per disc), 48 hrs at 37° C., read-out: Inhibition zone size, Corynebacterium diphtheriae (ATCC 27010)).

(Values after patent US7923438B2 (priority 2006, dated 2011).)
